Measurements: PMC7377239, “Cardiovascular Effects of Polychlorinated Biphenyls and Their Major Metabolites” (Environmental Health Perspectives, 2020)
Counter-ions that a name gives are not always drawn. Like-named read-outs stand apart in the source and are kept apart here.

What was measured:
[1] = test system: HUVECs; assay: Tube formation (tubulogenesis) assay in HUVECs, 18 h; assay type: cell-based, human; conditions: Homo sapiens, HUVEC, 18 h, HUVECs; for activity at 0.1 µM: 0.10 µM; for minimal effective concentration: top concentration 100.00 µM
Method: Similar to the cultivation of iCell®-endothelial cells, HUVEC maintenance and experimentation are detailed elsewhere ([Iwata et al. 2017]). Briefly, HUVECs were thawed, seeded, and grown in T75 tissue culture flasks in Medium 199 with EGM™-2 BulletKits™. HUVECs were incubated at regular cell culture conditions, 37°C and 5% CO2 , and passaged every 2–3 d using TrypLE™ Express. To ensure adequate endothelial function, experiments were performed with cells between passages 1 and 5.
Tube formation assays were performed on Geltrex™ LDEV-free reduced growth factor basement membrane using both iCell®-endothelial cells and HUVECs in 384-well format exactly as detailed in Iwata et al. ([2017]). Negative controls included media-only and vehicle control (i.e., 0.5% vol/vol DMSO in cell culture media) wells. Positive assay controls were consistent with previously published reports ([Iwata et al. 2017]) and included TAB ( 50μM ) as a cytotoxic control, and nocodazole ( 0.01–1μM ), suramin ( 0.5–50μM ), histamine ( 0.1–100μM ), and chloroquine ( 1–500μM ) as chemicals associated with specific effects on ECs. Each test chemical was screened in triplicate for each concentration. Briefly, for iCell®-endothelial cells, starvation media consisted of VascuLife® basal medium with 4 mM L-glutamine LifeFactor and 0.1% iCell®-endothelial cells medium supplement. To counter dilution effects, a 2× concentration of the HUVEC maintenance medium supplemented with additional VEGF was created (EGM™-2 BulletKits™ at 2× concentration; also the VEGF component was replaced with 12.5 ng/mL VEGF). Geltrex™ LDEV-free reduced growth factor basement membrane was thawed overnight and dispensed into 384-well plates ( 10μL/well ) with tapping and rotating to evenly coat. The plates were incubated for 1 h in a cell culture incubator at 37°C and 5% CO2 . A 2× PCB plate (containing all of the PCBs and metabolites in dose–response) was prepared in basal media and added, 25μL per well, to the Geltrex™ coated plates. On separate plates, cells were seeded 7,500 (iPSC- ECs) or 3,500 (HUVEC) cells/well. Cells were exposed to chemicals overnight at 37°C and 5% CO2 and stained with 3× concentration of calcein AM ( 25μL /well, 6μmol/L ) for 15 min before imaging. Images were captured at 4× magnification with the FITC filter (calcein AM). Images were analyzed with the angiogenesis module software within MetaXpress™ (Molecular Devices).
(§1) Phenotypic responses were quantitatively assessed using concentration–response modeling as detailed elsewhere ([Sirenko et al. 2017]). Briefly, phenotypic readouts were normalized to vehicle controls and fit to a four-parameter logistic model in R studio software (version 3.1.1; R Development Core Team). Following EPA guidance on dose–response modeling, a cutoff of one standard deviation across means of vehicle control (i.e., 0.5% vol/vol DMSO in cell culture media) wells was applied to determine the point-of-departure (POD) values ([U.S. EPA 2012]). In the absence of a concentration–response, the highest tested concentration (i.e., 100μM ) was assigned as “no observable adverse effect level.” The concentration–response assessment R script, as well as templates for vehicle and concentration–response data, are available as a supplement to Sirenko et al. ([2017]). The ability of physicochemical properties to predict differences in PODs were evaluated by multiregression and mixed-effects modeling using R.

[2] = test system: iCell endothelial cells (human iPSC-derived ECs); assay: High-content imaging cytotoxicity in iCell endothelial cells, 24 h; assay type: cell-based; conditions: Homo sapiens, Endothelial cell, iPSC-EC, 24 hr; for viability at 0.1 µM / activity at 0.1 µM: 0.10 µM; for minimal effective concentration: top concentration 100.00 µM
Method: The culture conditions of iCell®-endothelial cells were as reported elsewhere ([Iwata et al. 2017]). Briefly, T75 flasks were coated with a fibronectin solution ( 3 μg/cm^2 ) followed by incubation for 1–2 h. Cells were thawed for 3 min in a 37°C water bath. Thawed cells were added to maintenance medium made of VascuLife VEGF Medium Complete Kit, excluding the supplied FBS, and iCell® Endothelial Cells Medium Supplement. The final formulation of the maintenance medium is detailed in ([Iwata et al. 2017]). The aliquoted fibronectin solution was aspirated from the T75 flasks, and cells were seeded at 1.0×10^4 cells/cm^2 . Cells were maintained at 37°C and 5% CO2 with media changes occurring every 2 d and passaged every 3–4 d using TrypLE™ Express. All experiments were conducted on cells between passages 1 and 5.
Cytotoxicity was assessed in parallel experiments. For iCell®-endothelial cells, 384-well plates were coated with a 30μg/mL fibronectin solution ( 10μL/well ) and incubated for 2 h at RT. iCell®-endothelial cells were dissociated with TrypLE™ Express and prepared into a solution to achieve 750 cells per well and 50μL of total volume. The fibronectin solution was removed from the 384-well plate, and cells were plated. For HUVECs, similar dissociation and the same cell density were used for plating with the exclusion of the fibronectin solution. Cells were incubated at 37°C and 5% CO2 until a monolayer was formed, typically 3–5 d. 2×PCB plates were created with the requisite maintenance medium. Before treatment, the medium in the wells was exchanged to 25μL/well of fresh maintenance medium. 2×PCB chemical solutions ( […] ) were added. After 24 h incubation at 37°C and 5% CO2 , cells were stained with Hoechst 33342, MitoTracker™ Orange, and calcein AM for 20 min before replacing the staining media with FluoroBright DMEM. Cell culture plates were imaged using the ImageXpress® Micro Confocal high-content imaging system (Molecular Devices). Images were acquired at 10× magnification with DAPI, TRITC, or FITC filter (Hoechst 33342, MitoTracker™, or calcein AM, respectively). The multiwavelength cell scoring applications module in MetaXpress™ (Molecular Devices) was used to analyze the images.
as §1

[3] = 0.00 µM = 100.00, read-out: huvec.mtl.18hr
[4] = 0.00 µM = 100.00, read-out: huvec.tlps.18hr
[5] = 0.00 µM = 100.00, read-out: huvec.tta.18hr
[6] = 0.00 µM = 100.00, read-out: huvec.ttl.18hr
[7] = 0.00 µM control = 100.00, read-out: endo.cyto.24hr
[8] = 0.00 µM control = 100.00, read-out: endo.mito.24hr
[9] = 0.00 µM control = 100.00, read-out: endo.mitoint.24hr
[10] = 0.00 µM control = 100.00, read-out: endo.nma.24hr
[11] = 0.00 µM control = 100.00, read-out: endo.tc.24hrs

Compound: O=S(=O)(O)Oc1cc(Cl)c(-c2cc(Cl)ccc2Cl)cc1Cl [4-yl PCB 52 sulfate]
- activity at 0.01 µM [1, 3]: 91.2%
- activity at 0.01 µM [1, 4]: 86.7%
- activity at 0.01 µM [1, 5]: 66.3%
- activity at 0.01 µM [1, 6]: 59.7%
- activity at 0.1 µM [1, 3]: 103%
- activity at 0.1 µM [1, 4]: 108%
- activity at 0.1 µM [1, 5]: 99.9%
- activity at 0.1 µM [1, 6]: 89.7%
- activity at 1 µM [1, 3]: 99%
- activity at 1 µM [1, 4]: 111%
- activity at 1 µM [1, 5]: 97.7%
- activity at 1 µM [1, 6]: 87.2%
- activity at 10 µM [1, 3]: 93.2%
- activity at 10 µM [1, 4]: 84.7%
- activity at 10 µM [1, 5]: 79.1%
- activity at 10 µM [1, 6]: 70.9%
- activity at 100 µM [1, 3]: 61.8%
- activity at 100 µM [1, 4]: 26.3%
- activity at 100 µM [1, 5]: 85.2%
- activity at 100 µM [1, 6]: 94.3%
- minimal effective concentration ([1]; read-out: huvec.mtl.18hr POD): 14.6 µM
- minimal effective concentration ([1]; read-out: huvec.tlps.18hr POD): 10.1 µM
- minimal effective concentration ([1]; read-out: huvec.tta.18hr POD): 100 µM
- minimal effective concentration ([1]; read-out: huvec.ttl.18hr POD): 100 µM
- viability at 0.01 µM [2, 7]: 99.1%
- activity at 0.01 µM [2, 8]: 98.6%
- activity at 0.01 µM [2, 9]: 93.7%
- activity at 0.01 µM [2, 10]: 105%
- viability at 0.01 µM [2, 11]: 99.1%
- viability at 0.1 µM [2, 7]: 92.5%
- activity at 0.1 µM [2, 8]: 92.7%
- activity at 0.1 µM [2, 9]: 90.1%
- activity at 0.1 µM [2, 10]: 105%
- viability at 0.1 µM [2, 11]: 92.5%
- viability at 1 µM [2, 7]: 95.5%
- activity at 1 µM [2, 8]: 96.1%
- activity at 1 µM [2, 9]: 96.9%
- activity at 1 µM [2, 10]: 102%
- viability at 1 µM [2, 11]: 95.5%
- viability at 10 µM [2, 7]: 104%
- activity at 10 µM [2, 8]: 103%
- activity at 10 µM [2, 9]: 82.8%
- activity at 10 µM [2, 10]: 99.1%
- viability at 10 µM [2, 11]: 104%
- viability at 100 µM [2, 7]: 71.2%
- activity at 100 µM [2, 8]: 66.7%
- activity at 100 µM [2, 9]: 92.6%
- activity at 100 µM [2, 10]: 104%
- viability at 100 µM [2, 11]: 71.4%
- minimal effective concentration ([2]; read-out: endo.cyto.24hr POD): 41.2 µM
- minimal effective concentration ([2]; read-out: endo.mito.24hr POD): 41.2 µM
- minimal effective concentration ([2]; read-out: endo.mitoint.24hr POD): 100 µM
- minimal effective concentration ([2]; read-out: endo.nma.24hr POD): 100 µM
- minimal effective concentration ([2]; read-out: endo.tc.24hrs POD): 50.3 µM
